Assay [1] deals with T1, human GAL2 receptor (Homo sapiens, UniProt O43603).
T1 construct: expressed in transfected cells
T1 sequence (O43603 1-387): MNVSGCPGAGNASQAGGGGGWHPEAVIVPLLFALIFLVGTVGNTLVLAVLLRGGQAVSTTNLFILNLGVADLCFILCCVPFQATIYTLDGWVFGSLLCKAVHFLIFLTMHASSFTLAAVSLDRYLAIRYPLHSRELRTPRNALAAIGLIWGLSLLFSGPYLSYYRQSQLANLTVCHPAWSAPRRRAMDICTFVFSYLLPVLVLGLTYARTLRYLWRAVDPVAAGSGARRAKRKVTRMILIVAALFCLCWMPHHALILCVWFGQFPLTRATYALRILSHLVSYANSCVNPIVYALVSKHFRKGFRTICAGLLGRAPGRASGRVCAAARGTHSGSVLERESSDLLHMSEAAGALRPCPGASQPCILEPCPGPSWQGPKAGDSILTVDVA
Put plainly: Radioligand binding at cloned human GAL2 receptor. The settings on record: pyrimidines, Tables 1-3, read-out: Ki (nM) GalR2. As for the experimental part: (§1) The present invention provides for a method of determining the binding affinity of a GAL3 antagonist, wherein the GAL3 antagonist is dissolved in a “suitable solvent”. A “suitable solvent” means one which permits the measurement of binding affinity of the GAL3 antagonist to the human GAL3 receptor at concentrations less than 1 μM, preferably less than 100 nM. Examples of solvents include, but are not limited to, DMSO, ethanol, N,N-dimethylacetamide, or water. For indolones, the preferred solvent is 3% DMSO (final concentration in the assay). For pyrimidines, the preferred solvent is 1% ethanol/0.09% polypuronic acid F-127 (final concentration in the assay). For any other type of compounds, the preferred solvent is the solvent which permits the measurement of binding affinity of a GAL3 antagonist at the lowest concentration. Once a suitable solvent is ascertained for the binding assay of the human GAL3 receptor, the same solvent is used in assays to determine the binding affinity for instance, at the GAL1 receptor.
(§2) The binding properties of the pyrimidines of the present invention were evaluated at the cloned human galanin receptors, GAL1, GAL2, and GAL3, using protocols described herein.
(§3) The binding properties of the indolones of the present invention were evaluated at the cloned human galanin receptors, GAL1, GAL2, and GAL3, using protocols described herein.
(§4) LM(tk-) cells were stably transfected with the human GAL1 or GAL3 receptor. CHO cells were stably transfected with the human GAL2 receptor.
(§5) cDNAs for the human and rat GAL1, and human and rat GAL3 receptors were transfected with a G-418 resistant gene into the mouse fibroblast LM(tk-) cell line by a calcium phosphate transfection method (Cullen, 1967). Stably transfected cells were selected with G-418. Human and rat GAL2 receptors were similarly transfected into CHO cells.
(§6) Membranes were harvested from stably transfected LM(tk-) cells. Adherent cells were washed twice in ice-cold phosphate buffered saline (138 mM NaCl, 8.1 mM Na2HPO4, 2.5 mM KCl, 1.2 mM KH2PO4, 0.9 mM CaCl2, 0.5 mM MgCl2, pH 7.4) and lysed by sonication in ice-cold sonication buffer (20 mM Tris-HCl, 5 mM EDTA, pH 7.7). Large particles and debris were cleared by low speed centrifugation (200×g, 5 min, 4° C.). Membranes were collected from the supernatant fraction by centrifugation (32,000×g, 18 min, 4° C.), washed with ice-cold hypotonic buffer, and collected again by centrifugation (32,000×g, 18 min, 4° C.). The final membrane pellet was resuspended by sonication into a small volume of ice-cold binding buffer (−1 ml for every 5 plates: 10 mM NaCl, 20 mM HEPES, 0.22 mM KH2PO4, 1.26 mM CaCl2, 0.81 mM MgSO4, pH 7.4). Protein concentration was measured by the Bradford method (Bradford, 1976) using Bio-Rad Reagent, with bovine serum albumin as a standard. Membranes were held on ice for up to one hour and used fresh, or flash frozen and stored in liquid nitrogen. Membranes were prepared similarly from CHO cells.
(§7) Galanin Receptors: Binding assays were performed according to the following published methods: human GAL3 (PCT International Publication No. WO 98/15570), human GAL1 (PCT International Publication No. WO 95/2260) human GAL2 (PCT International Publication No. WO 97/26853).
(§8) Binding data were analyzed using nonlinear regression and statistical techniques available in the GraphPAD Prism package (San Diego, Calif.). Enzymatic assay data were derived from a standard curve of reference compound data.

The target in assay [2] is T2, human GAL1 receptor (Homo sapiens, UniProt P47211).
T2 construct: expressed in transfected cells
T2 sequence (P47211 1-349): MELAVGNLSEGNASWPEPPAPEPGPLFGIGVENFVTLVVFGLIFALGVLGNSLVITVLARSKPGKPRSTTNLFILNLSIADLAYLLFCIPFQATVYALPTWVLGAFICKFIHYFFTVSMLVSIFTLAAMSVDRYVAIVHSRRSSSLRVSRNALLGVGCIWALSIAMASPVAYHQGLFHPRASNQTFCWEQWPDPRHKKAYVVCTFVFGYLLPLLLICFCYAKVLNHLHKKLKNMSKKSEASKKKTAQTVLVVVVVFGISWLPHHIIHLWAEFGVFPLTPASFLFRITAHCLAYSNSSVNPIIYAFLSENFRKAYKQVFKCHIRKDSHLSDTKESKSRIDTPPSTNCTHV
Briefly: Radioligand binding at cloned human GAL1 receptor. The settings on record: pyrimidines, Tables 1-3, read-out: Ki (nM) GalR1. As for the experimental part: as §1, §2, §3, §4, §5, §6, §7, §8

Where only a bound is given, the exact number is not on record here.

Consider `Cc1ccc(Nc2cc(N3CCCCC3)nc(Nc3ccccc3)n2)cc1` [Example 3], for which the Ki in assay [1] and in assay [2] was over 5000 nM each time.
Regarding `Cc1ccc(Nc2cc(N3CCCCC3)nc(Nc3ccc(C)cc3)n2)cc1` [Example 4], the Ki in assay [1] and in assay [2] was over 5000 nM in each case.
Regarding `Cc1ccc(Nc2cc(N3CCCCC3)nc(N(C)c3ccccc3)n2)cc1` [Example 6], the inhibitory constant (Ki) (usually a measure of affinity in units of concentration, obtained from inhibition or displacement) in assay [2] is over 5000 nM.
On the same count and under the same terms, in the case of `Cc1ccc(Nc2cc(N3CCCCC3)nc(NCCc3c[nH]c4ccc(C)cc34)n2)cc1` [Example 8] it was over 5000 nM.
As to `COc1ccc2[nH]cc(CCNc3nc(Nc4ccc(C)cc4)cc(N4CCCCC4)n3)c2c1` [Example 9], the Ki in assay [2] was over 5000 nM.
`Cc1ccc(Nc2cc(N3CCCCC3)nc(NCCc3c[nH]c4ccccc34)n2)cc1` [Example 10]: the Ki in assay [2] is over 5000 nM.
`Cc1ccc(Nc2cc(N3CCCCC3)nc(N(C)CCc3c[nH]c4ccccc34)n2)cc1` [Example 11]: the Ki in assay [2] was over 5000 nM.
Turning to `CN(CCc1c[nH]c2ccccc12)c1nc(Nc2cccc(F)c2)cc(N2CCCCC2)n1` [Example 14], the Ki in assay [2] was over 5000 nM.
Consider `Cc1ccc(Nc2cc(N3CCCCC3)nc(N(C)CCc3c[nH]c4ccccc34)n2)cc1Cl` [Example 16], for which the Ki in assay [1] and in assay [2] was over 5000 nM in each case.
With `COc1cccc(Nc2cc(N3CCCCC3)nc(N(C)CCc3c[nH]c4ccccc34)n2)c1` [Example 17], the Ki in assay [2] was over 5000 nM.
Take `COCCN(CCc1c[nH]c2ccccc12)c1nc(Nc2ccc(C)cc2)cc(N2CCCCC2)n1` [Example 19]: the Ki in assay [2] is over 5000 nM.
`Cc1ccc(Nc2cc(N3CCCCC3)nc(N3CCN(Cc4ccccc4)CC3)n2)cc1` [Example 23]: the Ki in assay [1] and in assay [2] was over 5000 nM throughout.
Regarding `Cc1ccc(Nc2cc(N3CCCCC3)nc(N3CCC(c4ccccc4)CC3)n2)cc1` [Example 24], the Ki in assay [2] is over 5000 nM.
Regarding `CCc1ccccc1N1CCN(c2nc(Nc3ccc(C)cc3)cc(N3CCCCC3)n2)CC1` [Example 26], in assay [2], the Ki was over 5000 nM.
Same read-out and setting: then `Cc1ccc(Nc2cc(N3CCCCC3)nc(N3CCN(c4ccccn4)CC3)n2)cc1` [Example 30], with over 5000 nM; and `Cc1ccc(Nc2cc(N3CCCCC3)nc(N3CCN(c4ncccc4C)CC3)n2)cc1` [Example 31], with over 5000 nM; and `Cc1ccc(Nc2cc(N3CCCCC3)nc(N3CCN(c4cc(C(F)(F)F)ccn4)CC3)n2)cc1` [Example 32], with over 5000 nM.
Regarding `Cc1ccc(Nc2cc(N3CCCCC3)nc(N3CCN(c4cccc(C(F)(F)F)n4)CC3)n2)cc1` [Example 33], the Ki in assay [1] and in assay [2] was over 5000 nM each time.
Take `Cc1ccc(Nc2cc(N3CCCCC3)nc(N3CCN(c4ncccn4)CC3)n2)cc1` [Example 37]: the Ki in assay [2] was over 5000 nM.
Regarding `Cc1ccc(Nc2cc(N3CCCCC3)nc(N3CCc4ccccc43)n2)cc1` [Example 39], the Ki in assay [1] and in assay [2] was over 5000 nM throughout.
Regarding `Cc1ccc(Nc2cc(N3CCCCC3)nc(N3CCCc4ccccc43)n2)cc1` [Example 40], the Ki in assay [2] is over 5000 nM.
For `COc1cc2c(cc1OC)CN(c1nc(Nc3ccc(C)cc3)cc(N3CCCCC3)n1)CC2` [Example 42], in assay [2], the Ki was over 5000 nM.
Turning to `Cc1ccc(Nc2cc(N3CCCCC3)nc(N3Cc4cccc5cccc(c45)C3)n2)cc1` [Example 43], the Ki in assay [1] and in assay [2] was over 5000 nM in each case.
With `Cc1ccc(Nc2cc(N3CCCCC3)nc(N3CCC(O)(c4ccccc4)CC3)n2)cc1` [Example 44], the Ki in assay [2] is over 5000 nM.
Regarding `COCCN(CCOC)c1nc(Nc2ccc(C)cc2)cc(N2CCCCC2)n1` [Example 45], the Ki in assay [1] and in assay [2] was over 5000 nM each time.
As for `CN(C)c1cc(Nc2ccccc2)nc(Nc2ccccc2)n1` [Example 50], the Ki in assay [1] and in assay [2] was over 5000 nM each time.
Regarding `Cc1cccc(Nc2cc(N(C)C)nc(Nc3ccccc3)n2)c1` [Example 52], the Ki in assay [1] and in assay [2] was over 5000 nM throughout.
Turning to `Cc1ccc(Nc2nc(Nc3cccc(C)c3)cc(N(C)C)n2)cc1` [Example 53], the Ki in assay [1] and in assay [2] was over 5000 nM each time.
Regarding `Cc1ccc(Nc2cc(N(C)C)nc(Nc3ccccc3)n2)cc1` [Example 54], the Ki in assay [1] and in assay [2] was over 5000 nM throughout.
In the case of `Cc1ccc(Nc2cc(N(C)C)nc(Nc3ccc(Cl)c(Cl)c3)n2)cc1` [Example 55], the Ki in assay [1] and in assay [2] was over 5000 nM each time.
With `Cc1ccc(Nc2cc(N(C)C)nc(Nc3ccc(C)cc3)n2)cc1` [Example 56], the Ki in assay [1] and in assay [2] was over 5000 nM in each case.
Take `CN(C)c1cc(Nc2cccc(F)c2)nc(Nc2ccccc2)n1` [Example 57]: the Ki in assay [1] and in assay [2] was over 5000 nM throughout.
As to `CN(C)c1cc(Nc2ccc(Br)cc2)nc(Nc2ccccc2)n1` [Example 59], the Ki in assay [1] and in assay [2] was over 5000 nM in each case.
In the case of `CN(C)c1cc(Nc2ccc(C(C)(C)C)cc2)nc(Nc2ccccc2)n1` [Example 63], the Ki in assay [1] and in assay [2] was over 5000 nM in each case.
As for `CN(C)c1cc(Nc2ccc(Oc3ccccc3)cc2)nc(Nc2ccccc2)n1` [Example 64], the Ki in assay [1] and in assay [2] was over 5000 nM each time.
As for `CN(C)c1cc(Nc2ccc3ccccc3c2)nc(Nc2ccccc2)n1` [Example 65], the Ki in assay [1] and in assay [2] was over 5000 nM throughout.
`CN(C)c1cc(NC2CCCCC2)nc(Nc2ccccc2)n1` [Example 66]: the Ki in assay [1] and in assay [2] was over 5000 nM each time.
Regarding `Cc1ccc(Nc2cc(N(C)C)nc(N(C)c3ccc(C)cc3)n2)cc1` [Example 72], the Ki in assay [2] is over 5000 nM.
Still for that read-out and setting: then `Cc1ccc(Nc2cc(N(C)C)nc(N(C)C3CCCCC3)n2)cc1` [Example 73], with over 5000 nM; and `Cc1ccc(Nc2cc(N(C)C)nc(N3CCC(O)(c4ccccc4)CC3)n2)cc1` [Example 80], with over 5000 nM; and `Cc1ccc(Nc2cc(N(C)C)nc(N3CCC(c4ccccc4)CC3)n2)cc1` [Example 81], with over 5000 nM.
`Cc1ccc(Nc2cc(N(C)C)nc(N3CCN(S(=O)(=O)c4ccc(C)cc4)CC3)n2)cc1` [Example 84]: the Ki in assay [1] and in assay [2] was over 5000 nM throughout.
Regarding `Cc1ccc(Nc2cc(N(C)C)nc(N3CCN(c4ccccc4C)CC3)n2)cc1` [Example 85], the Ki in assay [2] is over 5000 nM.
Regarding `Cc1ccc(Nc2cc(N(C)C)nc(N3CCN(c4cccc(C)c4)CC3)n2)cc1` [Example 86], the Ki in assay [1] and in assay [2] was over 5000 nM throughout.
Take `Cc1ccc(Nc2cc(N(C)C)nc(N3CCN(c4ccc(C)cc4)CC3)n2)cc1` [Example 87]: the Ki in assay [2] was over 5000 nM.

The values above are taken from US20040110821A1, “GAL3 receptor antagonists for the treatment of affective disorders” (priority 2002, published 2004).
